Assays:
[1] = system: Human adipose tissue derived stem cells (hADSCs); test: Osteogenic differentiation and quantification of mineralization (Alizarin red S) in hADSCs; assay type: cell-based; conditions: 10 μM, 10 days
Description: (§1) Human adipose tissue derived stem cells (hADSCs), which is derived from adipose tissue, were selected an maintained in a keratinocyte SFM medium (Gibco BRL, Gaithersburg, Md.) supplemented with 5% FBS, 100 U/ml of penicillin and streptomycin.
(§2) New synthetic compounds were dissolved in DMSO to a final concentration of 10 mM and stored at −20° C. The concentration used was 10 μM and freshly diluted to the medium with a final concentration of DMSO at 0.1%. Control cultures were treated with the same amount of DMSO as used in the corresponding experiments.
Osteogenic differentiation was induced by culturing cells in an osteo-induction medium (OIM, 10% FBS, 0.1 μM dexamethasone, 10 mM β-glycerophosphate, and L-Ascorbic 2 phosphate 100 μM in low glucose DMEM) for 7-14 days. The extracellular matrix calcification was estimated by using an Alizarin red S stain (Carl, A. et al Anal. Biochem. 2004, 329, 77). The Alizarin red S-stained mineral was quantified by the osteogenesis quantification kit (CHEMICON®).

[2] = system: NCI-H460 cells (non-small-cell lung cancer); test: Cytotoxicity assay (MTS reduction), NCI-H460; assay type: cell-based, human; conditions: 3 days, % of DMSO control
Description: (§3) MCF-7 cells (human breast adenocarcinoma), NCI-H460 cells (non-small-cell lung cancer) and SF-268cells (glioblastoma cells) were cultured in a Dulbecco's modified Eagle's medium supplemented with a 10% fetal calf serum and a nonessential amino acid (Life Technologies, Inc.) and maintained at 37° C. in a humidified incubator with 5% CO2.
(§4) Human cancer cells were seeded in 96-well microtiter plates at a density of 6500, 2500 and 7500 cells/well in 100 μl of culture medium for MCF-7, NCI-H460, and SF-268, respectively. […] Cells were treated with test compounds for 3 days. Cell viability was determined by the 5-[3-(carboxymethoxy)-phenyl]-2-(4,5-dimethylthiazolyl)-3-(4-sulfophenyl)tetrazolium salt (MTS) reduction assay. Actinomycin D (10 μM, final concentration) and DMSO (0.1%, final concentration) were used as positive and vehicle controls, respectively. Results were expressed as a % of the DMSO control.

[3] = system: Human adipose tissue derived stem cells (hADSCs); test: Cell viability by MTT assay in hADSCs; assay type: cell-based; conditions: 10 μM, % of control
Description: as §1, §2
The MTT assay is a calorimetric assay based on the ability of the viable cells to reduce a soluble yellow tetrazolium salt to blue formazan crystals (Carmichael, J. et. el. Cancer Research 1987, 47, 936). After compound treatments, 350 μL of MTT solution ([…] in PBS) were added to each well and incubated for 4 hrs. DMSO was then added for another 0.5 hrs to thoroughly dissolve the dark blue crystals. The absorbance at 570 nm was measured with an ELISA reader. Inhibition of mitochondrial metabolism was shown as relative activity (% of control).

[4] = system: MCF-7 cells (human breast adenocarcinoma); test: Cytotoxicity assay (MTS reduction), MCF-7; assay type: cell-based; conditions: 3 days, % of DMSO control
Description: as §3, §4

[5] = system: Human adipose tissue derived stem cells (hADSCs); test: Cytotoxicity assay by lactate dehydrogenase (LDH) leakage in hADSCs; assay type: cell-based; conditions: 10 μM, % of total cell toxicity
Description: as §1, §2
Lactate dehydrogenase (LDH) leakage from cells was measured to quantify the cytotoxicity by using a cytotoxicity detection kit (Roche, Germany) (Crowston, J. G. et al Invest. Ophthalmol. Vis. Sci. 1998, 39, 449). Cells were previously seeded into 48-well plates (4×10^4 cells/well). After a drug treatment, the supernatants and cell layers of the cultures were collected for assay. According to the manufacturer's guidelines for the detection kit, cell layers were lysed with 1% TritonX-100, and cell lysates and supernatants were assayed in a 96-well plate, respectively. Briefly, 100 μL of catalyst solution was added in each assay well for 20 min. Absorbance was measured with an ELISA reader with a 490 nm filter. LDH leakage was shown as relative activity (% of total cell toxicity).

[6] = system: SF-268 cells (glioblastoma cells); test: Cytotoxicity assay (MTS reduction), SF-268; assay type: cell-based, human; conditions: 3 days, % of DMSO control
Description: as §3, §4

Substance: 2-[4-(3,4-Dimethoxyphenyl)isoxazol-5-yl]-5-([6-(piperidin-1-yl)hexyloxy]phenol [8b]
- Mineralization (10 days) [1]: 285%
- Growth percentage NCI-H460 (Lung) ([2]; 4 μg/mL): 89%
- Growth percentage NCI-H460 (Lung) ([2]; 20 μg/mL): 2%
- Cell viability (3 days, MTT) [3]: 11%
- Growth percentage MCF7 (Breast) ([4]; 4 μg/mL): 93%
- Growth percentage MCF7 (Breast) ([4]; 20 μg/mL): 4%
- Cell cytotoxicity (3 days, LDH) [5]: 41%
- Growth percentage SF-268 (CNS) ([6]; 4 μg/mL): 116%
- Growth percentage SF-268 (CNS) ([6]; 20 μg/mL): 15%

Source: US8138184B2, “Isoxazole derivatives and pharmaceutical compositions comprising the same” (Kaohsiung Medical University, priority 2008, dated 2012)
